Measured values as given in patent US20030135173A1 (priority 2001, published 2003).
Where two headings read alike, the source gives them in different places.

What was measured:
S. aureus (MN8) = experiment: microbe, parasite or virus in culture; type: cell-based; settings: Staphylococcus aureus; for inhibition at 0.2 %: 0.2% test compound; for inhibition at 0.5 %: 0.5% test compound
S. aureus strain RN 6390 = type: cell-based, Staphylococcus aureus
S. aureus FRI-1169 = type: cell-based, Staphylococcus aureus
S. aureus FRI-1187 [1] = type: cell-based, Staphylococcus aureus
S. aureus FRI-1187 [2] = type: cell-based, Staphylococcus aureus; remark: listed apart in the source
[3] = read-out: Reduction of Toxin %, Table 2
[4] = read-out: Reduction of Toxin %, Table 4
[5] = read-out: Reduction of Toxin %, Table 3

`O=C(O)c1ccccc1O` [2-hydroxybenzoic acid] showed an inhibition at 0.2 % (S. aureus (MN8); [3]) of 93%.
`CC(=O)Nc1ccc(O)cc1` [4-Acetamidophenol] was tested, and the inhibition at 0.5 % (S. aureus (MN8); [4]) was 79%.
`CC(=O)N[C@@H](Cc1ccc(O)cc1)C(=O)O` [Acetyl tyrosine] gave an inhibition at 0.5 % (S. aureus (MN8); [5]) of 69%.
Compound `O=C(O)c1cc(O)c(O)c(O)c1` [Gallic acid] has an inhibition at 0.5 % (S. aureus (MN8); [5]) of 95%.
For `OCCc1ccccc1` [Phenylethyl alcohol], the “production of the alpha toxin” value (S. aureus strain RN 6390) was “significantly reduced”, the “effect on the growth of S. aureus cells” value (S. aureus FRI-1169) was “minimal, if any, effect” and the inhibition at 0.5 % (S. aureus (MN8); [3]) was 97%. The inhibition at 0.5 % (S. aureus (MN8); [5]) was 98%, the inhibition at 0.5 % (S. aureus (MN8); [4]) was 98% and the “amount of exotoxin production” value (S. aureus FRI-1187 [1]) was “significantly reduced”. The “effect on the growth of S. aureus cells” value (S. aureus FRI-1187 [2]) was “minimal, if any, effect”.
For `O=C(O)/C=C/c1ccccc1` [Trans-cinnamic acid], the inhibition at 0.5 % (S. aureus (MN8); [5]) was 82%.
`Nc1ccc(C(=O)O)cc1` [p-aminobenzoic acid] showed an inhibition at 0.2 % (S. aureus (MN8); [3]) of 89%.
`COC(=O)c1ccc(O)cc1` [p-hydroxybenzoic acid, methyl ester] was tested, and the “production of the alpha toxin” value (S. aureus strain RN 6390) was “significantly reduced” and the inhibition at 0.2 % (S. aureus (MN8); [3]) was 82%.
